≈ marks a conversion by molar mass, not a printed value. Entries after “also recorded” stand apart in the source; their conditions may differ. Like-named read-outs stand apart in the source and are kept apart here.
Columns and labels:
[1] = Cell viability assay (MTS), L-02; type: cell-based, human; conditions: human, L-02 cells (normal liver cells); L-02, 100 μmol/L, 48 h
Procedure: (§1) To investigate the biocompatibility of the synthesized balofloxacin derivative, the cytoxicity of 2-e on human normal cells (3T3, L-02) and tumor cells (BEL-7402, H520, A549, and MCF-7) was studied. As an experimental example human liver cells (L-02) growing in the log phase, were plated in the 96-well plate at a density of 5000 cells/well. The cells were cultured at 37°C for 24 h under 5% CO2 medium. Then different concentrations of 1e and 2-e were added, the L-02 cells were cultured at 37°C for 48 h under a 5% CO2 atmosphere. Then the medium was aspirated, 100 μL of serum-free medium and 20 μL of MTS were added into each well, and L-02 was incubated at 37°C for 1 h under a 5% CO2 atmosphere. After that, the absorbance of the solutions at 490 nm was obtained using a microplate reader and calculated cell survival rate according to the following formula: Cell survive rate(%)=(ODtest−ODblank)/(ODcontrol−ODblank)×100%.

L-02 = experiment: Cell viability assay (MTS), L-02; type: cell-based, human; conditions: L-02
Procedure: as §1

MRSA cells = experiment: Cell wall damage monitored by atomic force microscopy (AFM); type: cell-based; conditions: 10 μM, 37°C, 30 min
Procedure: To observe the structural changes in the bacterial surface after the administration of balofloxacin derivative 2-e, atomic force microscope assay was performed. The bacterial suspension was diluted with LB liquid medium to 10^7 CFU/ml. The bacterial solution and the drug solution were mixed in an equal volume so that the concentration of 1e and 2-e was 10 μM in the final solution, respectively. And after mixing, it was incubated at 37°C for 30 min, together with the control group in the same way. After that, the sample was centrifuged at 9,000 rpm for 5 min and the supernatant was discarded, while the precipitate was washed twice with physiological saline in the same volume and centrifuged at 9,000 rpm for 5 min. Finally, the bacterial sample, prepared by dispersion in the same volume of physiological saline solution, was dropped onto the surface of the mica plate (about 0.5 cm^2), dried naturally at ambient temperature, and scanned by an atomic force microscope.

A549 = experiment: Cell viability assay (MTS), A549; type: cell-based, human; conditions: A549
Procedure: as §1

[2] = Cell viability assay (MTS), A549; type: cell-based, human; conditions: human, A549 tumor cells; A549, 100 μmol/L, 48 h
Procedure: as §1

MCF-7 = experiment: Cell viability assay (MTS), MCF-7; type: cell-based, human; conditions: MCF-7
Procedure: as §1

[3] = Cell viability assay (MTS), MCF-7; type: cell-based, human; conditions: human, MCF-7 tumor cells; MCF-7, 100 μmol/L, 48 h
Procedure: as §1

MRSA [4] = experiment: MIC and MBC determinations in vitro, MRSA; type: cell-based; conditions: MRSA clinical isolate; for MIC: 24 h culture; for MBC: solid medium 24 h, read-out: MBC
Procedure: (§2) The three strains of MRSA, P. aeruginosa, and E. coli used in this experiment were from clinical isolates, which were provided by the People’s Liberation Army 304 Hospital.
(§3) To evaluate the antibacterial activities of newly synthesized N (7) position modified fluoroquinolones, the minimum inhibitory (MIC) and bactericidal (MBC) concentrations of these compounds toward bacteria were measured.

[5] = Cell viability assay (MTS), H520; type: cell-based, human; conditions: human, H520 tumor cells; H520, 100 μmol/L, 48 h
Procedure: as §1

H520 = experiment: Cell viability assay (MTS), H520; type: cell-based, human; conditions: H520
Procedure: as §1

MRSA [6] = experiment: Time-dependent antibacterial effects in vitro; type: cell-based; conditions: for antibacterial activity in early and late stages of the exponential growth phase: 10 × MIC; for log10 CFU after the first 8 h: early exponential phase, start log10 CFU 5.5, 10 × MIC
Procedure: In order to further verify the antibacterial effect of the representative compound 2-e, time-dependent bactericidal activity of 2-e against MRSA was determined. This study referred to the reported methods ([Ling et al., 2015]). MRSA was cultured overnight in LB liquid and the bacterial solution at 10^9 CFU/ml tested on the machine was diluted at 1:10,000 with LB liquid medium and cultured at 37°C, 180 rpm. […] Time-dependent bacterial colonies were evaluated at 4 or 8 h intervals as follows: 100 μL of the mixture at the current time point was taken and centrifuged at 10,000 rpm for 2 min, and the pellet formed was dispersed with PBS, which was diluted by the ten-fold dilution method. 100 μL of bacterial dilution was evenly spread on LB solid medium at 37°C for 24 h. The colonies counted, according to national standards, accounted for the drug’s time-dependent antibacterial results. The same experimental operation was repeated three times independently.

P. aeruginosa = experiment: MIC and MBC determinations in vitro, P. aeruginosa; type: cell-based; conditions: P. aeruginosa clinical isolate; for MIC: 24 h culture; for MBC: solid medium 24 h
Procedure: as §2, §3

Hemolytic activity = type: cell-based, rabbit; conditions: male, New Zealand white, rabbit, red cell suspension from rabbit blood; even at high concentrations (> 10^5 × MIC), 37°C, 24 h; read-out: hemolysis rate
Procedure: (§4) The animal experiment was approved by the Laboratory Animal Management Committee/Laboratory Animal Welfare Ethics Committee, Institute of Radiation Medicine, Chinese Academy of Medical Sciences (No. IRM-DWLL-2019153). Hemolysis anemia is one of the major adverse reactions of antibiotics. To assess the blood compatibility of N (7) position modified balofloxacin, the hemolytic activity of 2-e was tested. Fresh rabbit blood, obtained from the ear vein of a male New Zealand white rabbit, was diluted at a ratio of 1:20 in volume with PBS, centrifuged and resuspended in PBS at 1,000 rpm for 5 min to form an experimental red cell suspension. 500 μL drug 2-e solution and equal volumes of blood suspension were mixed in which the final drug concentration was 500, 250, 125, 62.5, 31.25, 15.62, 7.81, 3.91, 1.95, and 0.98 μg/ml, respectively, these mixtures were incubated at 37°C for 24 h. The positive control group was an equal volume of diluted blood cells mixed with an equal volume of 0.5% Triton X-100. The negative control group was mixed with an equal volume of PBS and diluted blood cells. After incubation, the mixture in a series of centrifuge tubes was centrifuged under the same conditions, and 200 μL of the supernatant was aspirated and transferred to a 96-well plate. The release of hemoglobin from the main contents was measured at A405nm using a microplate reader (Thermo, Varioskan Flash 3001, United States). Each data were from the triplicate experiments. The percentage of hemolysis in the hemolysis test was calculated according to the following formula: %Hemolysis=(A405 test sample−A405 negative control)/(A405 positive control−A405 negative control).

[7] = tested on: rabbit red cell suspension; experiment: Hemolytic activity; type: cell-based
Procedure: as §4

[8] = tested on: MRSA, P. aeruginosa, and E. coli; experiment: MIC and MBC values stated over the three strains together; type: cell-based
Procedure: as §2, §3

[9] = Cell viability assay (MTS), BEL-7402; type: cell-based, human; conditions: human, BEL-7402 tumor cells; BEL-7402, 100 μmol/L, 48 h
Procedure: as §1

BEL-7402 = experiment: Cell viability assay (MTS), BEL-7402; type: cell-based, human; conditions: BEL-7402
Procedure: as §1

E. coli = experiment: MIC and MBC determinations in vitro, E. coli; type: cell-based; conditions: Escherichia coli, E. coli clinical isolate; for MIC: 24 h culture; for MBC: solid medium 24 h
Procedure: as §2, §3

3T3 = experiment: Cell viability assay (MTS), 3T3; type: cell-based; conditions: 3T3
Procedure: as §1

[10] = Cell viability assay (MTS), 3T3; type: cell-based; conditions: mouse, 3T3 cells; 3T3, 100 μmol/L, 48 h
Procedure: as §1

[11] = Staphylococcus aureus, MRSA, 24 h, read-out: MIC
[12] = Staphylococcus aureus, MRSA, 24 h
[13] = Pseudomonas aeruginosa, read-out: MIC
[14] = Pseudomonas aeruginosa, read-out: MBC
[15] = range over MIC and MBC and the three strains, read-out: MIC and MBC values

Compound	MIC (MRSA [4]; [11])	MIC (P. aeruginosa)	MIC (P. aeruginosa; [13])	melting point	MIC (E. coli)	structural change of MRSA cells in AFM image (MRSA cells)	MBC (MRSA [4]; [12])	antibacterial activity in early and late stages of the exponential growth phase (MRSA [6]; MRSA)	log10 CFU after the first 8 h (MRSA [6])	MBC (P. aeruginosa)	MBC (P. aeruginosa; [14])	hemolysis at 24 h (Hemolytic activity)	MBC (E. coli)	MBC [8, 15]	also measured
COc1c(N2CCCC(N(C)C(C)=O)C2)c(F)cc2c(=O)c(C(=O)O)cn(C3CC3)c12 (stereo not shown) [Compound 2-e, 1-Cyclopropyl-6-fluoro-8-methoxy-7-(3-(N-methylacetamido)piperidin-1-yl)-4-oxo-1,4-dihydroquinoline-3-carboxylic acid]	0.0195 to 0.039 µg/mL (≈ 0.0452 to 0.0904 µM)	0.039 µg/mL (≈ 0.0904 µM)	0.039 µg/mL (≈ 0.0904 µM)	201.6 to 202.3 °C	2.5 µg/mL (≈ 5.79 µM)	could effectively destroy the membrane and wall of MRSA cells; also recorded: complete discharge of their contents and substantial fragmentation	0.039 µg/mL (≈ 0.0904 µM)	good antibacterial activity	0	0.078 µg/mL (≈ 0.181 µM)	0.078 µg/mL (≈ 0.181 µM)	≤ 5%	5 µg/mL (≈ 11.6 µM)	–	viability at 48 h, 100 μmol/L [1]: ≥ 80%; toxicity toward cell line (L-02): low toxicity; also recorded: did not show toxicity; toxicity toward cell line (A549): low toxicity; viability at 48 h, 100 μmol/L [2]: ≥ 80%; toxicity toward cell line (MCF-7): low toxicity; viability at 48 h, 100 μmol/L [3]: ≥ 80%; MIC (MRSA [4]): 0.0195 µg/mL (≈ 0.0452 µM); viability at 48 h, 100 μmol/L [5]: ≥ 80%; toxicity toward cell line (H520): low toxicity; time-dependent antibacterial effect, early logarithmic growth phase (MRSA [6]; MRSA): bactericidal effects occurred; time-dependent antibacterial effect, late logarithmic growth phase (MRSA [6]; MRSA): bacterial inhibition occurred; hemolytic activity [7]: not hemolytic; MBC ([8]; bound over MIC and MBC, converted to μmol/L, read-out: MIC and MBC): < 12 µM; viability at 48 h, 100 μmol/L [9]: ≥ 80%; toxicity toward cell line (BEL-7402): low toxicity; toxicity toward cell line (3T3): low toxicity; viability at 48 h, 100 μmol/L [10]: ≥ 80%
COc1c(N2CCCC(N(C)C(=O)c3ccco3)C2)c(F)cc2c(=O)c(C(=O)O)cn(C3CC3)c12 (stereo not shown) [Compound 13-e, 1-Cyclopropyl-6-fluoro-8-methoxy-7-(3-(N-methylfuran-2-carboxamido)piperidin-1-yl)-4-oxo-1,4-dihydroquinoline-3-carboxylic acid]	0.078 µg/mL (≈ 0.161 µM)	–	0.078 µg/mL (≈ 0.161 µM)	167.5 to 168.7 °C	10 µg/mL (≈ 20.7 µM)	–	0.156 µg/mL (≈ 0.323 µM)	–	–	–	0.156 µg/mL (≈ 0.323 µM)	–	20 µg/mL (≈ 41.4 µM)	–	–
CC(=O)NC1(c2c(F)cc3c(=O)c(C(=O)O)cn4c3c2OCC4C)CC1 (stereo not shown) [Compound 2-g, 10-(1-Acetamidocyclopropyl)-9-fluoro-3-methyl-7-oxo-2,3-dihydro-7H-[1,4]oxazino[2,3,4-ij]quinoline-6-carboxylic acid]	25 µg/mL (≈ 69.4 µM)	–	25 µg/mL (≈ 69.4 µM)	273.1 to 274.1 °C	25 µg/mL (≈ 69.4 µM)	–	50 µg/mL (≈ 139 µM)	–	–	–	50 µg/mL (≈ 139 µM)	–	50 µg/mL (≈ 139 µM)	25 to 50 µg/mL	–

The next lines start with results.

MIC (MRSA [4]; [11])	MIC (P. aeruginosa)	MIC (P. aeruginosa; [13])	melting point	MIC (E. coli)	Compound	structural change of MRSA cells in AFM image (MRSA cells)	MBC (MRSA [4]; [12])	antibacterial activity in early and late stages of the exponential growth phase (MRSA [6]; MRSA)	log10 CFU after the first 8 h (MRSA [6])	MBC (P. aeruginosa)	MBC (P. aeruginosa; [14])	hemolysis at 24 h (Hemolytic activity)	MBC (E. coli)	MBC [8, 15]	also measured
0.078 µg/mL (≈ 0.2 µM)	0.078 µg/mL (≈ 0.2 µM)	0.078 µg/mL (≈ 0.2 µM)	–	0.078 µg/mL (≈ 0.2 µM)	CNC1CCCN(c2c(F)cc3c(=O)c(C(=O)O)cn(C4CC4)c3c2OC)C1 (stereo not shown) [Compound 1e, balofloxacin]	ruptured and there was an outflow of cellular contents	0.156 µg/mL (≈ 0.401 µM)	good antibacterial activity	0	0.156 µg/mL (≈ 0.401 µM)	0.156 µg/mL (≈ 0.401 µM)	≤ 5%	0.156 µg/mL (≈ 0.401 µM)	–	–
0.156 µg/mL (≈ 0.49 µM)	–	0.313 µg/mL (≈ 0.983 µM)	–	0.156 µg/mL (≈ 0.49 µM)	C[C@H]1COc2c(C3(N)CC3)c(F)cc3c(=O)c(C(=O)O)cn1c23 [Compound 1g, pazufloxacin, reference compound]	–	0.313 µg/mL (≈ 0.983 µM)	–	–	–	0.625 µg/mL (≈ 1.96 µM)	–	0.313 µg/mL (≈ 0.983 µM)	0.156 to 0.625 µg/mL	–

— publication PMC9437215, “Synthesis and antibacterial activity evaluation of N (7) position-modified balofloxacins” (Frontiers in Chemistry, 2022)
